Measured values taken from ChEMBL document CHEMBL1156829 (Proc Natl Acad Sci U S A, 2008).

Experiments:
Plasmodium falciparum [1] = assay: NOVARTIS: Inhibition of Plasmodium falciparum 3D7 (drug-susceptible) proliferation in erythrocyte-based infection assay; type: functional, organism-based; details: Plasmodium falciparum, 3D7
Plasmodium falciparum [2] = assay: NOVARTIS: Inhibition of Plasmodium falciparum W2 (drug-resistant) proliferation in erythrocyte-based infection assay; type: functional, organism-based; details: Plasmodium falciparum, W2; read-out: EC50
[3] = NOVARTIS: Cytotoxicity against human hepatocellular carcinoma cell line (Huh7); type: toxicity, cell-based, Huh-7; details: Huh7 cells (hepatocellular carcinoma cell line)

Question: What does the source list for `O=S(=O)(/C=C/c1ccccc1)NCCCCNc1ccnc2cc(Cl)ccc12`?
Answer: EC50 (Plasmodium falciparum [1]): 405 nM; EC50 (Plasmodium falciparum [2]): 397 nM; CC50 [3]: 1480 nM

Question: Which results are given for `CCC(C)(C)C1CCc2c(sc(NC(=O)c3ccc(F)cc3)c2C(N)=O)C1` (stereo not given)?
Answer: EC50 (Plasmodium falciparum [1]): > 1250 nM; EC50 (Plasmodium falciparum [2]): 2340 nM; CC50 [3]: > 10000 nM

Question: With `CCN(C(=O)Cn1c(=O)oc2ccccc21)c1ccc(F)cc1` as the molecule, how does the EC50 (Plasmodium falciparum [1]) read?
Answer: > 1530 nM

Question: What about the EC50 (Plasmodium falciparum [2]) of the same molecule?
Answer: 2310 nM

Question: And the CC50 [3]?
Answer: > 10000 nM

Question: Which results are given for `Cc1ccc2nc(C)cc(NCCCN(C)C)c2c1`?
Answer: EC50 (Plasmodium falciparum [1]): 410 nM; EC50 (Plasmodium falciparum [2]): 824 nM; CC50 [3]: > 3620 nM

Question: Which results are given for `COc1ccc(C2C(C(=O)Nc3ccc(OC)c(OC)c3)CCC(=O)N2c2ccc(OC)cc2)cc1` (stereo not given)?
Answer: EC50 (Plasmodium falciparum [1]): > 1360 nM; EC50 (Plasmodium falciparum [2]): 2270 nM; CC50 [3]: > 10000 nM

Question: For `COc1ccccc1C1SCCN1C(=O)Nc1ccc(Cl)c(Cl)c1` (stereo not given), which EC50 (Plasmodium falciparum [1]) is on record?
Answer: > 1020 nM

Question: And the EC50 (Plasmodium falciparum [2])?
Answer: 2260 nM

Question: What about the CC50 [3] of the same molecule?
Answer: > 10000 nM

Question: For `COc1ccc(C(=O)N2C(C(=O)Nc3ccc(C)cc3)CSC2c2ccc(C(C)(C)C)cc2)cc1` (stereo not given), which EC50 (Plasmodium falciparum [1]) is on record?
Answer: 1040 nM

Question: And the EC50 (Plasmodium falciparum [2])?
Answer: 1170 nM

Question: And the CC50 [3]?
Answer: > 2970 nM

Question: Which results are given for `C[n+]1c(C=Cc2ccc(Cl)c(Cl)c2)ccc2ccccc21`?
Answer: EC50 (Plasmodium falciparum [1]): 524 nM; EC50 (Plasmodium falciparum [2]): 1760 nM; CC50 [3]: 5370 nM

Question: What does the source list for `COc1cc(C(=O)Nc2c3c(nn2-c2cc(C)cc(C)c2)CSC3)cc(OC)c1OC`?
Answer: EC50 (Plasmodium falciparum [1]): 907 nM; EC50 (Plasmodium falciparum [2]): 341 nM; CC50 [3]: > 1070 nM

Question: For `O=C(CCC1CCCC1)NC1CCC(Nc2ccnc3cc(Cl)ccc23)CC1` (stereo not given), which EC50 (Plasmodium falciparum [1]) is on record?
Answer: 1010 nM

Question: And the EC50 (Plasmodium falciparum [2])?
Answer: 875 nM

Question: And the CC50 [3]?
Answer: > 3890 nM

Question: What does the source list for `O=C(Nc1cc(C(F)(F)F)cc(C(F)(F)F)c1)Nc1ccc2nnsc2c1`?
Answer: EC50 (Plasmodium falciparum [1]): 6370 nM; EC50 (Plasmodium falciparum [2]): 4360 nM; CC50 [3]: 19400 nM

Question: What does the source list for `O=C(Nc1ccncc1)Nc1cccc(NC(=O)Nc2ccncc2)c1`?
Answer: EC50 (Plasmodium falciparum [1]): > 1250 nM; EC50 (Plasmodium falciparum [2]): 2230 nM; CC50 [3]: > 10000 nM

Question: With `COc1ccc(N2CCN(c3ncnc4sc(C(=O)NCc5cccnc5)c(C)c34)CC2)cc1` as the molecule, how does the EC50 (Plasmodium falciparum [1]) read?
Answer: > 11200 nM

Question: What about the EC50 (Plasmodium falciparum [2]) of the same molecule?
Answer: > 8110 nM

Question: And the CC50 [3]?
Answer: 20700 nM

Question: For `NC(=O)C1CCCN(C(=O)COC(c2ccccc2)c2cccnc2Cl)C1` (stereo not given), which EC50 (Plasmodium falciparum [1]) is on record?
Answer: 4810 nM

Question: And the EC50 (Plasmodium falciparum [2])?
Answer: > 12500 nM

Question: And the CC50 [3]?
Answer: 45600 nM

Question: Which results are given for `O=C(NC(Cc1ccccc1)c1nnc(SCc2ccc(F)cc2)n1-c1ccc(Cl)cc1Cl)C1CCCCC1` (stereo not given)?
Answer: EC50 (Plasmodium falciparum [1]): 748 nM; EC50 (Plasmodium falciparum [2]): 350 nM; CC50 [3]: 1660 nM

Question: What does the source list for `O=C(O)c1ccc(S(=O)(=O)c2ccc3c(c2)C(=O)N(c2ccc(Sc4ccc([N+](=O)[O-])cc4)cc2)C3=O)cc1`?
Answer: EC50 (Plasmodium falciparum [1]): > 1250 nM; EC50 (Plasmodium falciparum [2]): 2070 nM; CC50 [3]: > 10000 nM

Question: With `COc1cc(-c2nc3ccc(N4CCN(C)CC4)cc3[nH]2)cc(OC)c1OC` as the molecule, how does the EC50 (Plasmodium falciparum [1]) read?
Answer: 733 nM

Question: And the EC50 (Plasmodium falciparum [2])?
Answer: 5570 nM

Question: And the CC50 [3]?
Answer: 21200 nM

Question: Which results are given for `CC(=O)Nn1c(C(C)(C)C)nc2ccccc2c1=O`?
Answer: EC50 (Plasmodium falciparum [1]): > 1470 nM; EC50 (Plasmodium falciparum [2]): 2470 nM; CC50 [3]: > 10000 nM

Question: Which results are given for `Cc1ccc(C)c2[nH]c(=O)c(CN(Cc3ccccc3)C(=S)NCCCN(C)C)cc12`?
Answer: EC50 (Plasmodium falciparum [1]): 5220 nM; EC50 (Plasmodium falciparum [2]): > 4670 nM; CC50 [3]: 19500 nM

Question: Which EC50 (Plasmodium falciparum [1]) does the source give for `CCn1nc(/C=C/c2ccccc2)nc2c(=O)n(C)c(=O)nc1-2` here?
Answer: > 3330 nM

Question: And the EC50 (Plasmodium falciparum [2])?
Answer: > 10000 nM

Question: What about the CC50 [3] of the same molecule?
Answer: 42000 nM

Question: What does the source list for `Nc1nnc(CCSc2ccc(Cl)cc2)s1`?
Answer: EC50 (Plasmodium falciparum [1]): 175 nM; EC50 (Plasmodium falciparum [2]): > 1250 nM; CC50 [3]: > 3710 nM

Question: For `COc1cccc2c1OCC(C(=O)Nc1ccc(C)cc1)=C2`, which EC50 (Plasmodium falciparum [1]) is on record?
Answer: 461 nM

Question: What about the EC50 (Plasmodium falciparum [2]) of the same molecule?
Answer: > 12500 nM

Question: And the CC50 [3]?
Answer: 54700 nM

Question: For `C[C@H]1C[C@H](C)C(=O)[C@@H]([C@@H](O)CC2CC(=O)NC(=O)C2)C1`, which EC50 (Plasmodium falciparum [1]) is on record?
Answer: 21.6 nM

Question: And the EC50 (Plasmodium falciparum [2])?
Answer: 67.5 nM

Question: What about the CC50 [3] of the same molecule?
Answer: 304 nM

Question: Which EC50 (Plasmodium falciparum [1]) does the source give for `CCOc1ccc2c(c1)c1nnc(-c3ccc4c(c3)OCO4)c-1cn2Cc1ccc(Cl)cc1` here?
Answer: 8390 nM

Question: What about the EC50 (Plasmodium falciparum [2]) of the same molecule?
Answer: 4980 nM

Question: What about the CC50 [3] of the same molecule?
Answer: 14600 nM

Question: What does the source list for `COc1ccc(C(=O)N2C(C(=O)Nc3ccccc3F)CSC2c2ccc(C(C)(C)C)cc2)cc1` (stereo not given)?
Answer: EC50 (Plasmodium falciparum [1]): 940 nM; EC50 (Plasmodium falciparum [2]): 801 nM; CC50 [3]: > 3600 nM

Question: With `Cn1ccnc1C(=O)NNc1ncc(C(F)(F)F)cc1Cl` as the molecule, how does the EC50 (Plasmodium falciparum [1]) read?
Answer: 609 nM

Question: And the EC50 (Plasmodium falciparum [2])?
Answer: 359 nM

Question: And the CC50 [3]?
Answer: 1150 nM

Question: For `O=C1NC(=S)N/C1=C/c1ccc(C(F)(F)F)cc1`, which EC50 (Plasmodium falciparum [1]) is on record?
Answer: > 1030 nM

Question: What about the EC50 (Plasmodium falciparum [2]) of the same molecule?
Answer: > 1110 nM

Question: What about the CC50 [3] of the same molecule?
Answer: > 2880 nM

Question: Which EC50 (Plasmodium falciparum [1]) does the source give for `CC1=C(CC(=O)c2cccc([N+](=O)[O-])c2)C(=O)c2ccccc2C1=O` here?
Answer: 2840 nM

Question: And the EC50 (Plasmodium falciparum [2])?
Answer: 1720 nM

Question: And the CC50 [3]?
Answer: 4690 nM

Question: For `O=C1NC(=S)N/C1=C\C=C\c1ccc([N+](=O)[O-])o1`, which EC50 (Plasmodium falciparum [1]) is on record?
Answer: > 881 nM

Question: And the EC50 (Plasmodium falciparum [2])?
Answer: 2200 nM

Question: What about the CC50 [3] of the same molecule?
Answer: > 10000 nM

Question: For `CCN(CC)CCCC(C)Nc1cc(/C=C/c2ccc([N+](=O)[O-])cc2)nc2ccc(OC)cc12` (stereo not given), which EC50 (Plasmodium falciparum [1]) is on record?
Answer: 743 nM

Question: What about the EC50 (Plasmodium falciparum [2]) of the same molecule?
Answer: 1300 nM

Question: What about the CC50 [3] of the same molecule?
Answer: > 6250 nM

Question: For `O=C(Nc1cccc(C(F)(F)F)c1)c1ccc(-c2cccs2)cc1`, which EC50 (Plasmodium falciparum [1]) is on record?
Answer: 10000 nM

Question: What about the EC50 (Plasmodium falciparum [2]) of the same molecule?
Answer: 1940 nM

Question: What about the CC50 [3] of the same molecule?
Answer: 7130 nM

Question: Which results are given for `c1ccc(-c2ccc(-c3ccccn3)nc2)nc1`?
Answer: EC50 (Plasmodium falciparum [1]): 287 nM; EC50 (Plasmodium falciparum [2]): 141 nM; CC50 [3]: 360 nM

Question: What does the source list for `Clc1cccc(CNC2CCN(CCc3ccccc3)CC2)c1`?
Answer: EC50 (Plasmodium falciparum [1]): 298 nM; EC50 (Plasmodium falciparum [2]): 801 nM; CC50 [3]: 3040 nM

Question: For `O=[N+]([O-])c1cc(C(F)(F)F)cc([N+](=O)[O-])c1Sc1cccc2cccnc12`, which EC50 (Plasmodium falciparum [1]) is on record?
Answer: 4340 nM

Question: And the EC50 (Plasmodium falciparum [2])?
Answer: 1120 nM

Question: What about the CC50 [3] of the same molecule?
Answer: 4340 nM

Question: For `CC(C)(C)C1=NN(CC(=O)Nc2ccc3c(c2)OCO3)C(=O)c2cc3ccccc3n2C1`, which EC50 (Plasmodium falciparum [1]) is on record?
Answer: > 12500 nM

Question: What about the EC50 (Plasmodium falciparum [2]) of the same molecule?
Answer: 3160 nM

Question: What about the CC50 [3] of the same molecule?
Answer: 9810 nM
